Source: US20250313563A1, “GLYCOGEN SYNTHASE KINASE 3 INHIBITORS AND USES THEREOF” (The Broad Institute, Inc., priority 2022, published 2025)
Where two headings read alike, the source gives them in different places.

Legend:
[1] = biological target: GSK3b (GST-full length GSK3b) (Homo sapiens (Human), UniProt P49841); experiment: GSK3b TR-FRET kinase assay; format: biochemical
Outline: (§1)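 Full-length GST-tagged human enzyme (1 nM) is exposed to test compound for 30 min before substrates are added. Phosphorylation of a primed biotinylated glycogen synthase peptide proceeds 100 min at room temperature at low ATP (4 μM α; 2 μM β) or high ATP (1 mM). Product is quantified by TR-FRET.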

[2] = biological target: GSK3α (GST-full length GSK3α) (Homo sapiens (Human), UniProt P49840); experiment: GSK3α TR-FRET kinase assay; format: biochemical
Outline: as §1

[3] = 1 nM GSK3b, 2 μM ATP, 30 minute preincubation, Table 16, read-out: GSK3-B TR-FRET BIOCHEMICAL (TR-FRET), IC50
[4] = read-out: GSK3-B (TR-FRET 1 mM ATP), GMean, IC50, 1 mM ATP, geometric mean
[5] = 1 nM GSK3α, 4 μM ATP, 30 minute preincubation, Table 16, read-out: GSK3-A TR-FRET BIOCHEMICAL (TR-FRET), IC50
[6] = read-out: GSK3-A (TR-FRET 1 mM ATP), GMean, IC50, 1 mM ATP, geometric mean
[7] = 1 nM GSK3b, 2 μM ATP, 30 minute preincubation, Table 16, read-out: GSK3-B TR-FRET BIOCHEMICAL (TR-FRET)
[8] = 1 nM GSK3α, 4 μM ATP, 30 minute preincubation, Table 16, read-out: GSK3-A TR-FRET BIOCHEMICAL (TR-FRET)
[9] = 1 nM GSK3b, 2 μM ATP, 30 minute preincubation, geometric mean, read-out: GSK3-B TR-FRET BIOCHEMICAL (TR-FRET), GMean, IC50
[10] = 1 nM GSK3α, 4 μM ATP, 30 minute preincubation, geometric mean, read-out: GSK3-A TR-FRET BIOCHEMICAL (TR-FRET), GMean, IC50
[11] = 1 nM GSK3b, 2 μM ATP, 30 minute preincubation, read-out: GSK3-B TR-FRET BIOCHEMICAL (TR-FRET), IC50
[12] = 1 nM GSK3α, 4 μM ATP, 30 minute preincubation, read-out: GSK3-A TR-FRET BIOCHEMICAL (TR-FRET), IC50

Chain of GSK3b (GST-full length GSK3b) (P49841 whole entry): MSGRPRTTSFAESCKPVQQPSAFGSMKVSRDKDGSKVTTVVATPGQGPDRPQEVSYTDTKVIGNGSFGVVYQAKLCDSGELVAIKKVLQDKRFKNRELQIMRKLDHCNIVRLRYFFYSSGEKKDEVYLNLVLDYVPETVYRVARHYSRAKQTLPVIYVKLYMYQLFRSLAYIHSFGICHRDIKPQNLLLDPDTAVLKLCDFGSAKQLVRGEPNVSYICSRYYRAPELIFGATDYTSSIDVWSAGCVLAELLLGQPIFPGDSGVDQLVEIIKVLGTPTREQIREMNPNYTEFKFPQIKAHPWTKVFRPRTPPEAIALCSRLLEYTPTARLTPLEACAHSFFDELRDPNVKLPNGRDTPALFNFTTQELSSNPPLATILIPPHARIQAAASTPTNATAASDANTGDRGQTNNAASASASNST
Chain of GSK3α (GST-full length GSK3α) (P49840 whole entry): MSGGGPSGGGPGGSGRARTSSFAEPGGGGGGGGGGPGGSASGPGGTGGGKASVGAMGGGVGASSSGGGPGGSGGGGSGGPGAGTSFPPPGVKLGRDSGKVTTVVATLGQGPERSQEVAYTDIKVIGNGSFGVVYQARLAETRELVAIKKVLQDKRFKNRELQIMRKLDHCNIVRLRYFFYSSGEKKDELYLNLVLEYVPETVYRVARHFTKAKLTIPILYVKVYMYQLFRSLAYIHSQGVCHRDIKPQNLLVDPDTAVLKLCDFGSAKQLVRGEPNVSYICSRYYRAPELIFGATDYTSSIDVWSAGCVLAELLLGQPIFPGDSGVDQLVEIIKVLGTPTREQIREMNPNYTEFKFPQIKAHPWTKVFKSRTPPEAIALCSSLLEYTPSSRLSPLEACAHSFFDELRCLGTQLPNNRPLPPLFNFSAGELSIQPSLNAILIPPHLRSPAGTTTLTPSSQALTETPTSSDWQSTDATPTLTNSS

## CCC1(c2cccc(-c3ccncc3F)c2)C2=C(CC(C)(C)NC2=O)Nc2n[nH]c(Cl)c21 (stereo not drawn) [Compound 949324]
[1]; [3]
  IC50: ≤ 100 nM
[1]; [4]
  IC50: 1000 to 5000 nM
[2]; [5]
  IC50: ≤ 100 nM
[2]; [6]
  IC50: 100 to 1000 nM

## CC1(C)CC(=O)C2=C(C1)Nc1n[nH]cc1C21CCN(S(=O)(=O)c2cccc(Cl)c2)CC1 [Compound 947243]
[1]; [7]
  IC50: ≤ 100 nM
[1]; GSK3-B (TR-FRET 1 mM ATP), GMean, IC50, 1 mM ATP, geometric mean
  IC50: 1000 to 5000 nM
[2]; [8]
  IC50: ≤ 100 nM
[2]; GSK3-A (TR-FRET 1 mM ATP), GMean, IC50, 1 mM ATP, geometric mean
  IC50: 100 to 1000 nM

## CC[C@]1(c2ccccc2)C2=C(C[C@@H](C(F)(F)F)CC2=O)Nc2n[nH]cc21 [Compound 806608]
[1]; [9]
  IC50: > 1670 nM
[2]; [10]
  IC50: 100 to 1000 nM

## CCC1(c2cccc(-c3cn(C)nc3C)c2)C2=C(CC(C)(C)NC2=O)Nc2n[nH]c(Cl)c21 (stereo not drawn) [Compound 948768]
[1]; [9]
  IC50: ≤ 100 nM
[2]; [10]
  IC50: ≤ 100 nM

## CCC1(c2cccc(-c3ccnc(O)c3)c2)C2=C(CC(C)(C)CC2=O)Nc2n[nH]cc21 (stereo not drawn) [Compound 913352]
[1]; [3]
  IC50: ≤ 100 nM
[2]; [5]
  IC50: ≤ 100 nM

## CC[C@@H]1C[C@@]2(CO1)C1=C(CC(C)(C)CC1=O)Nc1n[nH]cc12 [Compound 913213]
[1]; [7]
  IC50: 1000 to 5000 nM
[2]; [8]
  IC50: 100 to 1000 nM

## CC(C)[C@@H]1C[C@@]2(CCO1)C1=C(CC(C)(C)CC1=O)Nc1n[nH]cc12 [Compound 884013]
[1]; [3]
  IC50: > 5000 nM
[2]; [5]
  IC50: 1000 to 5000 nM

## CCC1(c2cccc(C(F)(F)F)c2)C2=C(CCN(c3ccn(C)n3)C2=O)Nc2n[nH]cc21 (stereo not drawn) [Compound 949835]
[1]; [3]
  IC50: 100 to 1000 nM
[2]; [5]
  IC50: ≤ 100 nM

## CC[C@]1(c2cccc(-c3cncn3C)c2)C2=C(CC(C)(C)CC2=O)Nc2n[nH]c(C)c21 [Compound 913037]
[1]; [3]
  IC50: 100 to 1000 nM
[2]; [5]
  IC50: ≤ 100 nM

## CCC1(c2cccc(-c3cc(C)ncc3C)c2)C2=C(CC(C)(C)CC2=O)Nc2n[nH]c(C(F)(F)F)c21 (stereo not drawn) [Compound 947363]
[1]; [7]
  IC50: ≤ 100 nM
[1]; [4]
  IC50: 100 to 1000 nM
[2]; [8]
  IC50: ≤ 100 nM
[2]; [6]
  IC50: ≤ 100 nM

## O=C1C[C@H](C(F)(F)F)CC2=C1C1(CCOCC1)c1c[nH]nc1N2 [Compound 901477]
[1]; [3]
  IC50: 1000 to 5000 nM
[2]; [5]
  IC50: 100 to 1000 nM

## CC[C@]1(c2ccccc2)C2=C(C[C@H](C(F)(F)F)CC2=O)Nc2n[nH]cc21 [Compound 806609]
[1]; [9]
  IC50: > 1670 nM
[2]; [10]
  IC50: 100 to 1000 nM

## CCC1(c2cccc(S(=O)(=O)C3CC3)c2)C2=C(CC(C)(C)NC2=O)Nc2n[nH]c(C(F)(F)F)c21 (stereo not drawn) [Compound 948776]
[1]; [9]
  IC50: 100 to 1000 nM
[2]; [10]
  IC50: 100 to 1000 nM

## CC[C@]1(c2ccccc2)C2=C(Nc3n[nH]cc31)[C@@H](F)C(C)(C)CC2=O [Compound 957199]
[1]; [7]
  IC50: > 5000 nM
[2]; [8]
  IC50: > 5000 nM

## CC1(C)CC(=O)C2=C(C1)Nc1n[nH]cc1[C@]21CCN(S(=O)(=O)c2cccc(F)c2)C1 [Compound 943488]
[1]; [7]
  IC50: ≤ 100 nM
[2]; [8]
  IC50: ≤ 100 nM

## CCC1(c2cccc(-c3ccnc(C)c3)c2)C2=C(CC(C)(C)N(C)C2=O)Nc2n[nH]cc21 (stereo not drawn) [Compound 948302]
[1]; [9]
  IC50: 100 to 1000 nM
[2]; [10]
  IC50: ≤ 100 nM

## CCC1(c2cccc(-c3ccncc3C)c2)C2=C(CC(C)(C)NC2=O)Nc2n[nH]cc21 (stereo not drawn) [Compound 945461]
[1]; [11]
  IC50: ≤ 100 nM
[2]; [12]
  IC50: ≤ 100 nM

## CC1(C)CC(=O)C2=C(C1)Nc1n[nH]cc1C21CCC2(CC2)CC1 [Compound 893312]
[1]; [11]
  IC50: ≤ 100 nM
[2]; [12]
  IC50: ≤ 100 nM

## CCC1(c2cccc(-c3ccnc4c3CCC4)c2)C2=C(CC(C)(C)C2=O)Nc2n[nH]cc21 (stereo not drawn) [Compound 952557]
[1]; [3]
  IC50: 100 to 1000 nM
[2]; [5]
  IC50: ≤ 100 nM

## CC1(C)CC(=O)C2=C(Nc3n[nH]cc3C23CCCCC3)[C@H]1F [Compound 951711]
[1]; [7]
  IC50: ≤ 100 nM
[2]; [8]
  IC50: ≤ 100 nM

## CCC1(c2cccc(-c3cnn(C)c3)c2)C2=C(CC(C)(C)NC2=O)Nc2n[nH]cc21 (stereo not drawn) [Compound 943912]
[1]; [11]
  IC50: 1000 to 5000 nM
[2]; [12]
  IC50: ≤ 100 nM

## CC[C@@]1(c2cccc(S(=O)(=O)C3CC3)c2)C2=C(CC(C)(C)NC2=O)Nc2n[nH]cc21 [Compound 947803]
[1]; [9]
  IC50: ≤ 100 nM
[2]; [10]
  IC50: ≤ 100 nM

## CC1(C)CC(=O)C2=C(C1)Nc1n[nH]cc1[C@]21C[C@@]2(CCN(CC(F)F)C2)C1 [Compound 913139]
[1]; [11]
  IC50: 100 to 1000 nM
[2]; [12]
  IC50: 100 to 1000 nM

## CC[C@]1(c2cccc(-c3ccncc3O)c2)C2=C(CC(C)(C)CC2=O)Nc2n[nH]cc21 [Compound 945724]
[1]; [7]
  IC50: ≤ 100 nM
[1]; [4]
  IC50: 1000 to 5000 nM
[2]; [8]
  IC50: ≤ 100 nM
[2]; [6]
  IC50: 100 to 1000 nM

## CC1(C)CC(=O)C2=C(C1)Nc1n[nH]cc1[C@@]2(C)c1cccc(-c2ccccc2)c1 [Compound 801366]
[1]; [9]
  IC50: > 5000 nM
[2]; [10]
  IC50: > 5000 nM

## CCC1(c2cccc(-c3ccnc(C)c3)c2)C2=C(CC3(CCCOC3)NC2=O)Nc2n[nH]cc21 (stereo not drawn) [Compound 948152]
[1]; [9]
  IC50: 100 to 1000 nM
[2]; [10]
  IC50: ≤ 100 nM

## CCC1(c2cccc(Br)c2)C2=C(CC(C)(C)C(F)C2=O)Nc2n[nH]cc21 (stereo not drawn) [Compound 835312]
[1]; [9]
  IC50: > 5000 nM
[2]; [10]
  IC50: > 5000 nM

## CCC1(c2cccc(-c3ccncc3Cl)c2)C2=C(CC(C)(C)NC2=O)Nc2n[nH]cc21 (stereo not drawn) [Compound 948142]
[1]; [9]
  IC50: ≤ 100 nM
[1]; [4]
  IC50: 100 to 1000 nM
[2]; [10]
  IC50: ≤ 100 nM
[2]; [6]
  IC50: ≤ 100 nM

## CC[C@]1(c2cccc(N3CCCC3)c2)C2=C(CC(C)(C)CC2=O)Nc2n[nH]c(C(F)(F)F)c21 [Compound 819574]
[1]; [9]
  IC50: ≤ 100 nM
[1]; [4]
  IC50: ≤ 100 nM
[2]; [10]
  IC50: ≤ 100 nM
[2]; [6]
  IC50: ≤ 100 nM

## CC1(C)CC(=O)C2=C(C1)Nc1n[nH]cc1C21CCN(CC(F)(F)F)CC1 [Compound 874528]
[1]; [7]
  IC50: 100 to 1000 nM
[2]; [8]
  IC50: ≤ 100 nM

## CCC1(c2cccc(-c3cnn(C)c3)c2)C2=C(CC(C)(C)C2=O)Nc2n[nH]cc21 (stereo not drawn) [Compound 950826]
[1]; [3]
  IC50: > 5000 nM
[2]; [5]
  IC50: > 5000 nM

## CC1(C)CC(=O)C2=C(C1)Nc1n[nH]c(CCC(F)(F)F)c1C2(C)c1ccccc1 (stereo not drawn) [Compound 856948]
[1]; [9]
  IC50: > 5000 nM
[2]; [10]
  IC50: > 5000 nM

## CCC1(c2cccc(-c3ccnc(C)c3C)c2)C2=C(CC(C)(C)CC2=O)Nc2n[nH]c(C(F)(F)F)c21 (stereo not drawn) [Compound 947329]
[1]; [7]
  IC50: ≤ 100 nM
[1]; [4]
  IC50: ≤ 100 nM
[2]; [8]
  IC50: ≤ 100 nM
[2]; [6]
  IC50: ≤ 100 nM

## CC[C@]1(c2cccc(N3CCCCC3)c2)C2=C(CC(C)(C)NC2=O)Nc2n[nH]c(C(F)(F)F)c21 [Compound 949178]
[1]; [9]
  IC50: 1000 to 5000 nM
[2]; [10]
  IC50: 100 to 1000 nM

## Cc1c(S(=O)(=O)N2CCC3(CC2)C2=C(CC(C)(C)CC2=O)Nc2n[nH]cc23)cnn1C [Compound 947460]
[1]; [7]
  IC50: ≤ 100 nM
[2]; [8]
  IC50: ≤ 100 nM

## CC1(C)CC(=O)C2=C(C1)Nc1n[nH]cc1C21CN(S(=O)(=O)c2cccnc2)C1 [Compound 913265]
[1]; [3]
  IC50: > 5000 nM
[2]; [5]
  IC50: > 5000 nM

## CCC1(c2cccc(C(F)(F)F)c2)C2=C(CCN(c3ccc(F)cc3)C2=O)Nc2n[nH]cc21 (stereo not drawn) [Compound 947748]
[1]; [9]
  IC50: 100 to 1000 nM
[2]; [10]
  IC50: ≤ 100 nM

## C[C@H]1COCC[C@@]12C1=C(CC(C)(C)CC1=O)Nc1n[nH]cc12 [Compound 924309]
[1]; [3]
  IC50: > 5000 nM
[2]; [5]
  IC50: 1000 to 5000 nM

## CCC1(c2cccc(-c3ccnc(C)c3)c2)C2=C(CC(C)NC2=O)Nc2n[nH]cc21 (stereo not drawn) [Compound 913357]
[1]; [11]
  IC50: 1000 to 5000 nM
[2]; [12]
  IC50: 100 to 1000 nM

## CC[C@@]1(c2cccc(C(F)(F)F)c2)C2=C(CCN(c3cc(C)n(C)n3)C2=O)Nc2n[nH]cc21 [Compound 951939]
[1]; [3]
  IC50: 100 to 1000 nM
[2]; [5]
  IC50: ≤ 100 nM

## CCC1(c2cc(N(C)C(C)=O)ccc2F)C2=C(CC(C)(C)CC2=O)Nc2n[nH]cc21 (stereo not drawn) [Compound 913124]
[1]; [3]
  IC50: 100 to 1000 nM
[2]; [5]
  IC50: 100 to 1000 nM
